Tests used:
Type in all cases: biochemical
Conditions in all cases: ADP-Glo SIK kinase assay
[1] = target: T1, SIK1 (Homo sapiens, UniProt P57059); assay: ADP-Glo kinase assay, SIK1
T1 construct: purchased Carna Biosciences 02-131
Procedure, shortened: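 ADP-Glo, RT throughout. Enz/substrate + ATP, 120 min; ADP-Glo reagent 40 min (ATP depletion); detection reagent 30 min; luminescence read. Neg ctrl 1% DMSO, pos ctrl 10 μM staurosporine, final concs.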

[2] = target: T2, SIK2 (Homo sapiens, UniProt Q9H0K1); assay: ADP-Glo kinase assay, SIK2
T2 construct: purchased ThermoFisher Scientific PV4792
T2 sequence (Q9H0K1 whole entry): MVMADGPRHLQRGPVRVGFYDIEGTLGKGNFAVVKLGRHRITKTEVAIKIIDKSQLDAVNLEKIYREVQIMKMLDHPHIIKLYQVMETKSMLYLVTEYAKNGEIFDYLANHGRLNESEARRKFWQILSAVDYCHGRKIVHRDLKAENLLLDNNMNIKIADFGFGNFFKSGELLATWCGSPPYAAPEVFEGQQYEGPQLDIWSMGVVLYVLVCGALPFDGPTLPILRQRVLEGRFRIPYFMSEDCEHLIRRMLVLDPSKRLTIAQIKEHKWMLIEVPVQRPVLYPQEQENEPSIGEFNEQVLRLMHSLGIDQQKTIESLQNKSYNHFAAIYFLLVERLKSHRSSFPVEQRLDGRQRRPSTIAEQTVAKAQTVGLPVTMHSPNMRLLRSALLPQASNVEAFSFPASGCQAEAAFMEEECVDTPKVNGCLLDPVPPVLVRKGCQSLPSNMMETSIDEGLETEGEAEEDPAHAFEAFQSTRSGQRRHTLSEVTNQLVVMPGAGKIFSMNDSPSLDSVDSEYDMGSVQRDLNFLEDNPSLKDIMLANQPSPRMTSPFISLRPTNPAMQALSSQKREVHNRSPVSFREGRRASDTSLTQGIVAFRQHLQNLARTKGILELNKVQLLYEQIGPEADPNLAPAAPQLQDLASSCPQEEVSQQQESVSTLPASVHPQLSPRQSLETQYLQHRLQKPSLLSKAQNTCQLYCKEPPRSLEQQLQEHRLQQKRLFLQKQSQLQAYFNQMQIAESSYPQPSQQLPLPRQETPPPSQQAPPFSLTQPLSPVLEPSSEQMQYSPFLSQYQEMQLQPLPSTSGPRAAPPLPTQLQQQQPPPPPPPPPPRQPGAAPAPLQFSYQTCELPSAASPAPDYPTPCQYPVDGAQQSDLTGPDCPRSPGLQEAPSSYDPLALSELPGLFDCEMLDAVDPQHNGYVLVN
Procedure, shortened: (§1)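 Kinase reactions (enzyme-substrate mix plus ATP) ran 120 min at room temperature for each of SIK3 and SIK2. Signal came from ADP-Glo: unconsumed ATP removed (40 min), ADP reconverted and detected by luciferase/luciferin (30 min), with luminescence tracking kinase activity. 10 μM staurosporine and 1% DMSO (final) served as controls.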

[3] = target: T3, SIK3 (Homo sapiens, UniProt Q9Y2K2); assay: ADP-Glo kinase assay, SIK3
T3 construct: purchased SignalChem S12-11G-100
T3 sequence (Q9Y2K2 whole entry): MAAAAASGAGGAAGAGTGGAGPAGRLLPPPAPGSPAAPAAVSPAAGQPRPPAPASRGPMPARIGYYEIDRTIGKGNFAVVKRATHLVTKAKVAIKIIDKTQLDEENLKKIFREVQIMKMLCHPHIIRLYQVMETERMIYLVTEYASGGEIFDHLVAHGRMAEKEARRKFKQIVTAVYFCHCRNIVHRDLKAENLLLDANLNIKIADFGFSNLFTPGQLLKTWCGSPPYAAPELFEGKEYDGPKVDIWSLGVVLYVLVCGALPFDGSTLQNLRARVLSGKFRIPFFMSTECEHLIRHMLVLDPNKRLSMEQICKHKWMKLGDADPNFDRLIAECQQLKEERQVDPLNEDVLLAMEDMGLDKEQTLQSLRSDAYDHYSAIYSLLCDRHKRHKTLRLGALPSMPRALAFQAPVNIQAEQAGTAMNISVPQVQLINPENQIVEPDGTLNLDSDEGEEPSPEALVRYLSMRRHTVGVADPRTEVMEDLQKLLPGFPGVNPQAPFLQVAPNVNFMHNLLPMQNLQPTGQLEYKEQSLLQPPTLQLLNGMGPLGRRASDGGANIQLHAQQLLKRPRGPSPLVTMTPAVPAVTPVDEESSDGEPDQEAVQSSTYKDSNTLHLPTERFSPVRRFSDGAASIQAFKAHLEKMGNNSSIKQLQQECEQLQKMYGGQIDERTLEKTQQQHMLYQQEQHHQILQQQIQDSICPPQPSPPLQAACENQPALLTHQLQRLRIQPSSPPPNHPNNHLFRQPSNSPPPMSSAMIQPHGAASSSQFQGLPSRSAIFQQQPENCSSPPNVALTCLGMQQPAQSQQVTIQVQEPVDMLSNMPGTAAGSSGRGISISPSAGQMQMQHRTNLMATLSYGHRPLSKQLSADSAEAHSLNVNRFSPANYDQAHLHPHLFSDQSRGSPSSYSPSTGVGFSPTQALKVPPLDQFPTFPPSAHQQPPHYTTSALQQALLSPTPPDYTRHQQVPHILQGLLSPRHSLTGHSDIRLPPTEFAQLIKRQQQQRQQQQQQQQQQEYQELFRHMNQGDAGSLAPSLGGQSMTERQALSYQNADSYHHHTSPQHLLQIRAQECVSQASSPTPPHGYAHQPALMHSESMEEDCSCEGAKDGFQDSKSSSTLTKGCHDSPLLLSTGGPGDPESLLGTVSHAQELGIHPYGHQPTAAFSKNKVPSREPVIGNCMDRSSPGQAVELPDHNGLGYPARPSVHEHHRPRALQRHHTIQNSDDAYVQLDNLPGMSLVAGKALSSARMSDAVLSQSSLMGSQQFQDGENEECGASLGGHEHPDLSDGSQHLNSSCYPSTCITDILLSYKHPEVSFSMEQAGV
Procedure, shortened: as §1

T1 sequence (P57059 whole entry): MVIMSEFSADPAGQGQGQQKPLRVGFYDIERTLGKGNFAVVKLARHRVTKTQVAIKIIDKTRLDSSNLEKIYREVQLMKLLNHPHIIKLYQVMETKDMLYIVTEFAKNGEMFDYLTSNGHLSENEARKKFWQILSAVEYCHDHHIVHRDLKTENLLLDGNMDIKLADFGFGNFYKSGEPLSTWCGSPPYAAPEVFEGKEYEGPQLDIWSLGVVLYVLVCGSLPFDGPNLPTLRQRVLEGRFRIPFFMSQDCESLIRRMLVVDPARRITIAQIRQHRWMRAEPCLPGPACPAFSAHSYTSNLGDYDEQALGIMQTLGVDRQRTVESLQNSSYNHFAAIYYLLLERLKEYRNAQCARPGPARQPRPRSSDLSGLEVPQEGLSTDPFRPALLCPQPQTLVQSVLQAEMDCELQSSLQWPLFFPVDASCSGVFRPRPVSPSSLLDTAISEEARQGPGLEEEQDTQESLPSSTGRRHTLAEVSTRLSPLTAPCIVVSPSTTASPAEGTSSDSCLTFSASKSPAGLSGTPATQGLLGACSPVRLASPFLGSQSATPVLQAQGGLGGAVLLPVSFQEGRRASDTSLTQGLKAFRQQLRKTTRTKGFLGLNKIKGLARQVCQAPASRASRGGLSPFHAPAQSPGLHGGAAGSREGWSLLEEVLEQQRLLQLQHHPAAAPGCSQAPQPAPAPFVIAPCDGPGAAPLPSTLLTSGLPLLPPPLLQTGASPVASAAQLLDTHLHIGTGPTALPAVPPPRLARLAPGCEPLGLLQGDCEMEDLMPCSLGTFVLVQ

SMILES | IC50 [1] | IC50 [2] | IC50 [3]
COc1cc(-c2cnc3cc(OCC4(F)CN(C(=O)OC(C)(C)C)C4)ccn23)cc2c1C(=O)N(CC(F)(F)F)CC2 [compound 248, tert-butyl 3-fluoro-3-[[3-[8-methoxy-1-oxo-2-(2,2,2-trifluoroethyl)-3,4-dihydroisoquinolin-6-yl]imidazo[1,2-a]pyridin-7-yl]oxymethyl]azetidine-1-carboxylate] | 100 to 500 nM | 0.01 to 10 nM | 0.01 to 10 nM
COc1cc(-c2cnc3cc(OCCN4CC(F)(F)C4)ccn23)cc2c1C(=O)N(CC(F)(F)F)CC2 [Cpd 244, 6-[7-[2-(3,3-difluoroazetidin-1-yl)ethoxy]imidazo[1,2-a]pyridin-3-yl]-8-methoxy-2-(2,2,2-trifluoroethyl)-3,4-dihydroisoquinolin-1-one] | 100 to 500 nM | 0.01 to 10 nM | 0.01 to 10 nM
CCOC(=O)C1(F)CCN(CCCOc2ccn3c(-c4cc(OC)c(C(=O)NC5CC5)c(OC(F)F)c4)cnc3c2)CC1 [Cpd 363, ethyl 1-[3-[3-[4-(cyclopropylcarbamoyl)-3-(difluoromethoxy)-5-methoxy-phenyl]imidazo[1,2-a]pyridin-7-yl]oxypropyl]-4-fluoro-piperidine-4-carboxylate] | 10 to 100 nM | 0.01 to 10 nM | 0.01 to 10 nM
COc1cc(-c2cnc3cc(OCCOCCN4CCCCC4)ccn23)cc(OC(F)F)c1C(=O)NC1CC1 [compound 305] | 10 to 100 nM | 0.01 to 10 nM | 0.01 to 10 nM

Other lines, results leading:

IC50 [1] | IC50 [2] | IC50 [3] | SMILES
10 to 100 nM | 0.01 to 10 nM | 0.01 to 10 nM | COc1cc(-c2cnc3cc(OCC(O)CN4CCOCC4)ccn23)cc(OC(F)F)c1C(=O)NC1CC1 (single isomer, unassigned) [Cpd 386, N-cyclopropyl-2-(difluoromethoxy)-4-[7-(2-hydroxy-3-morpholino-propoxy)imidazo[1,2-a]pyridin-3-yl]-6-methoxy-benzamide]
0.01 to 10 nM | 0.01 to 10 nM | 0.01 to 10 nM | COc1cc(-c2cnc3cc(OCCCN4CCC4)ccn23)cc(OC(F)F)c1C(=O)NC1CC1 [compound 274, 4-[7-[3-(azetidin-1-yl)propoxy]imidazo[1,2-a]pyridin-3-yl]-N-cyclopropyl-2-(difluoromethoxy)-6-methoxy-benzamide]
10 to 100 nM | 0.01 to 10 nM | 0.01 to 10 nM | COc1cc(-c2cnc3cc(OCCCN4CCC5(CC4)CNC(=O)O5)ccn23)cc(OC(F)F)c1C(=O)NC1CC1 [Cpd 324, N-cyclopropyl-2-(difluoromethoxy)-6-methoxy-4-[7-[3-(2-oxo-1-oxa-3,8-diazaspiro[4.5]decan-8-yl)propoxy]imidazo[1,2-a]pyridin-3-yl]benzamide]
10 to 100 nM | 0.01 to 10 nM | 0.01 to 10 nM | COc1cc(-c2cnc3cc(OCCCN4CCCC4)ccn23)cc(OC(F)F)c1C(=O)NC1CC1 [compound 275, N-cyclopropyl-2-(difluoromethoxy)-6-methoxy-4-[7-(3-pyrrolidin-1-ylpropoxy)imidazo[1,2-a]pyridin-3-yl]benzamide]
10 to 100 nM | 0.01 to 10 nM | 0.01 to 10 nM | COc1cc(-c2cnc3cc(OC[C@H]4COCCO4)ccn23)cc2c1C(=O)NCC2 [compound 242, 6-[7-[[(2R)-1,4-dioxan-2-yl]methoxy]imidazo[1,2-a]pyridin-3-yl]-8-methoxy-3,4-dihydro-2H-isoquinolin-1-one]

From US12264156B2, “Compounds and pharmaceutical compositions thereof for the treatment of diseases” (GALAPAGOS NV, priority 2018, dated 2025)
